What was measured:
Format in all cases: in vivo
asthma sufferer = test: Example E: inhalation aerosol used by an asthma sufferer; settings: 5.0% w/v aerosol, 0.01 mL sprayed into the mouth while inhaling
Method: (§1) The compounds of the invention are useful to prepare compositions for the treatment of ailments and the like. […] In each case the compounds formula I may be substituted for the example compound shown below with similar results. […] The skilled practitioner will appreciate that the examples provide guidance and may be varied based on condition and the patient. A inhalation aerosol composition, according to the present invention, is made comprising: An asthma sufferer sprays 0.01 mL via a pump actuator into the mouth while inhaling.

[1] = test system: human subject suffering from rheumatoid arthritis; test: Example A: tablets given orally to a subject suffering from rheumatoid arthritis; settings: tablet with 15 mg compound, three tablets per day orally for 2 years, 60 kg person
From the text: The compounds of the invention are useful to prepare compositions for the treatment of ailments and the like. […] In each case the compounds formula I may be substituted for the example compound shown below with similar results. […] The skilled practitioner will appreciate that the examples provide guidance and may be varied based on condition and the patient. A tablet composition for oral administration, according to the present invention, is made comprising: A human subject weighing 60 kg (132 lbs), suffering from rheumatoid arthritis, is treated by a method of this invention. Specifically, for 2 years, a regimen of three tablets per day is administered orally to said subject.

[2] = test system: patient having deep corneal abrasion; test: Example C: saline-based eye drop applied by a patient having deep corneal abrasion; settings: 5% w/w drop applied to each eye twice a day
From the text: as §1, with “saline-based composition for local administration,” for “inhalation aerosol composition,”, “A patient having deep corneal abrasion applies the drop to each eye twice” for “An asthma sufferer sprays 0.01 mL via”, “day.” for “pump actuator into the mouth while inhaling.”

[3] = test system: human subject with a premetastatic tumor; test: Example G: parenteral suspension injected next to a premetastatic tumor; settings: 100 mg/ml suspension, approximately 2.0 ml injected beside the tumor twice daily for approximately 30 days
From the text: The compounds of the invention are useful to prepare compositions for the treatment of ailments and the like. […] In each case the compounds formula I may be substituted for the example compound shown below with similar results. […] The skilled practitioner will appreciate that the examples provide guidance and may be varied based on condition and the patient. A composition for parenteral administration is made comprising: The above ingredients are mixed, forming a suspension. Approximately 2.0 ml of the suspension is administered, via injection, to a human subject with a premetastatic tumor. The injection site juxtaposes the tumor. This dosage is repeated twice daily, for approximately 30 days.

[4] = test system: human subject suffering from osteoarthritis; test: Example B: capsule given daily to a subject suffering from osteoarthritis; settings: capsule containing 70 mg daily for 5 years, 90 kg person
From the text: The compounds of the invention are useful to prepare compositions for the treatment of ailments and the like. […] In each case the compounds formula I may be substituted for the example compound shown below with similar results.
The skilled practitioner will appreciate that the examples provide guidance and may be varied based on condition and the patient.
A capsule for oral administration, according to the present invention, is made comprising:
A human subject weighing 90 kg (198 lbs), suffering from osteoarthritis, is treated by a method of this invention. Specifically, for 5 years, a capsule containing 70 mg of the compound of Example 3 is administered daily to said subject.

[5] = test system: patient suffering from chemical burns; test: Example D: topical composition applied by a patient suffering from chemical burns; settings: 0.20% w/v topical composition at each dressing change (b.i.d.)
From the text: as §1, with “topical composition for local administration,” for “inhalation aerosol composition,”, “A patient suffering from chemical burns applies” for “An asthma sufferer sprays 0.01 mL via a pump actuator into”, “composition at each dressing change (b.i.d.).” for “mouth while inhaling.”

## COc1ccc(S(=O)(=O)N2C[C@@H](O)C[C@@H]2C(=O)NO)cc1 [Example 2, (1N)-4-Methoxyphenylsulfonyl-(2R)-N-hydroxycarboxamido-(4S)-hydroxypyrrolidine]
Asthma sufferer
  asthma symptoms: Asthma symptoms are diminished

## COc1ccc(S(=O)(=O)N2C[C@H](Sc3nccn3C)C[C@@H]2C(=O)NO)cc1 [Example 9, (1N)-4-Methoxyphenylsulfonyl-(2R)-N-hydroxycarboxado-(4R)-[(1N)-methyl-2-mercaptoimidazyl]-pyrrolidine]
[1]
  findings on examination at the end of the treatment period (inflammation, mobility, pain): reduced inflammation, and improved mobility without concomitant pain

## COc1ccc(S(=O)(=O)N2C[C@@H](Oc3ccccc3)C[C@@H]2C(=O)NO)cc1 [Example 13, (1N)-4-Methoxyphenylsulfonyl-(2R)-N-hydroxycarboxamido-(4S)-phenoxypyrrolidine]
[2]
  corneal healing: Healing is speeded, with no visual sequelae

## COc1ccc(S(=O)(=O)N2C[C@@H](O)C[C@H]2C(=O)NO)cc1 [Example 4, (1N)-4-Methoxyphenylsulfonyl-(2S)-N-hydroxycarboxanido-(4S)-hydroxy-pyrrolidine]
[3]
  symptoms of the disease after 30 days: symptoms of the disease subside

## COc1ccc(S(=O)(=O)N2C[C@H](O)C[C@H]2C(=O)NO)cc1 [Example 3, (1N)-4-Methoxyphenylsulfonyl-(2S)-N-hydroxycarboxanido-(4R)-hydroxypyrrolidine]
[4]
  orthoscopy finding at the end of the treatment period (erosion/fibrillation of the articular cartilage): no further advancement of erosion/fibrillation of the articular cartilage
[5]
  scarring: Scarring is substantially diminished
